The NIST ThermoML archive (doi:10.1021/acs.jced.8b00854)

Experiments:
[1] = refractive index (Na D-line) (dimensionless); xn = mol fraction of the nth substance listed; conditions: 100 kPa, Liquid, Standard Abbe refractometry
[2] = xn = mol fraction of the nth substance listed; conditions: 100 kPa, Liquid, Vibrating tube method

CCCCn1cc[n+](C)c1.O=S(=O)([O-])C(F)(F)F [1-butyl-3-methylimidazolium trifluoromethanesulfonate] + O
Conditions | mass density, [2] [kg/m3] | refractive index, [1]
293.15 K, x1 = 0.1001 | 1176.55 | 1.396
293.15 K, x1 = 0.2003 | 1227.39 | 1.4145
293.15 K, x1 = 0.3007 | 1251.78 | 1.421
293.15 K, x1 = 0.4003 | 1266.32 | 1.4265
293.15 K, x1 = 0.5001 | 1275.87 | 1.4301
293.15 K, x1 = 0.5998 | 1282.43 | 1.432
293.15 K, x1 = 0.6995 | 1287.53 | 1.434
293.15 K, x1 = 0.8017 | 1291.5 | 1.4355
293.15 K, x1 = 0.8993 | 1294.38 | 1.4365
303.15 K, x1 = 0.1001 | 1169.14 | 1.3945
303.15 K, x1 = 0.2003 | 1219.44 | 1.411
303.15 K, x1 = 0.3007 | 1243.64 | 1.4195
303.15 K, x1 = 0.4003 | 1258.57 | 1.4245
303.15 K, x1 = 0.5001 | 1267.92 | 1.428
303.15 K, x1 = 0.5998 | 1274.38 | 1.4305
303.15 K, x1 = 0.6995 | 1279.4 | 1.4315
303.15 K, x1 = 0.8017 | 1283.28 | 1.4335
303.15 K, x1 = 0.8993 | 1286.22 | 1.4345
313.15 K, x1 = 0.1001 | 1161.07 | 1.3925
313.15 K, x1 = 0.2003 | 1210.91 | 1.4095
313.15 K, x1 = 0.3007 | 1235.41 | 1.418
313.15 K, x1 = 0.4003 | 1250.38 | 1.423
313.15 K, x1 = 0.5001 | 1259.88 | 1.426
313.15 K, x1 = 0.5998 | 1266.41 | 1.4285
313.15 K, x1 = 0.6995 | 1271.39 | 1.43
313.15 K, x1 = 0.8017 | 1275.29 | 1.431
313.15 K, x1 = 0.8993 | 1278.29 | 1.4325
323.15 K, x1 = 0.1001 | 1153.14 | 1.3915
323.15 K, x1 = 0.2003 | 1201.99 | 1.409
323.15 K, x1 = 0.3007 | 1226.91 | 1.4175
323.15 K, x1 = 0.4003 | 1241.75 | 1.421
323.15 K, x1 = 0.5001 | 1251.81 | 1.4245
323.15 K, x1 = 0.5998 | 1258.46 | 1.4255
323.15 K, x1 = 0.6995 | 1263.41 | 1.4275
323.15 K, x1 = 0.8017 | 1267.34 | 1.429
323.15 K, x1 = 0.8993 | 1270.34 | 1.4305
333.15 K, x1 = 0.1001 | 1143.31 | 1.3905
333.15 K, x1 = 0.2003 | 1193.54 | 1.408
333.15 K, x1 = 0.3007 | 1218.41 | 1.4155
333.15 K, x1 = 0.4003 | 1233.39 | 1.42
333.15 K, x1 = 0.5001 | 1243.49 | 1.422
333.15 K, x1 = 0.5998 | 1250.25 | 1.424
333.15 K, x1 = 0.6995 | 1255.51 | 1.4255
333.15 K, x1 = 0.8017 | 1259.46 | 1.427
333.15 K, x1 = 0.8993 | 1262.47 | 1.428
343.15 K, x1 = 0.1001 | 1133.11 | 1.389
343.15 K, x1 = 0.2003 | 1184.05 | 1.405
343.15 K, x1 = 0.3007 | 1209.18 | 1.415
343.15 K, x1 = 0.4003 | 1224.41 | 1.4185
343.15 K, x1 = 0.5001 | 1234.79 | 1.4215
343.15 K, x1 = 0.5998 | 1241.97 | 1.423
343.15 K, x1 = 0.6995 | 1247.23 | 1.4235
343.15 K, x1 = 0.8017 | 1251.33 | 1.4255
343.15 K, x1 = 0.8993 | 1254.45 | 1.4265

CCn1cc[n+](C)c1.F[B-](F)(F)F [1-ethyl-3-methylimidazolium tetrafluoroborate] + O
Conditions | mass density, [2] [kg/m3] | refractive index, [1]
293.15 K, x1 = 0.1001 | 1135.98 | 1.369
293.15 K, x1 = 0.2002 | 1190.68 | 1.3825
293.15 K, x1 = 0.3004 | 1219.59 | 1.3915
293.15 K, x1 = 0.4003 | 1237.8 | 1.398
293.15 K, x1 = 0.5009 | 1251.03 | 1.401
293.15 K, x1 = 0.5999 | 1261.19 | 1.4045
293.15 K, x1 = 0.7002 | 1269.24 | 1.4065
293.15 K, x1 = 0.8004 | 1275.23 | 1.4085
293.15 K, x1 = 0.9011 | 1279.57 | 1.4105
303.15 K, x1 = 0.1001 | 1129.7 | 1.367
303.15 K, x1 = 0.2002 | 1183.7 | 1.381
303.15 K, x1 = 0.3004 | 1212.47 | 1.3895
303.15 K, x1 = 0.4003 | 1230.6 | 1.3955
303.15 K, x1 = 0.5009 | 1243.72 | 1.3995
303.15 K, x1 = 0.5999 | 1253.76 | 1.402
303.15 K, x1 = 0.7002 | 1261.71 | 1.4045
303.15 K, x1 = 0.8004 | 1267.64 | 1.407
303.15 K, x1 = 0.9011 | 1271.96 | 1.408
313.15 K, x1 = 0.1001 | 1123.34 | 1.3655
313.15 K, x1 = 0.2002 | 1176.44 | 1.379
313.15 K, x1 = 0.3004 | 1204.95 | 1.3875
313.15 K, x1 = 0.4003 | 1223.03 | 1.3935
313.15 K, x1 = 0.5009 | 1236.17 | 1.3975
313.15 K, x1 = 0.5999 | 1246.23 | 1.4005
313.15 K, x1 = 0.7002 | 1254.19 | 1.4025
313.15 K, x1 = 0.8004 | 1260.1 | 1.405
313.15 K, x1 = 0.9011 | 1264.39 | 1.4065
323.15 K, x1 = 0.1001 | 1116.34 | 1.364
323.15 K, x1 = 0.2002 | 1169.01 | 1.377
323.15 K, x1 = 0.3004 | 1197.41 | 1.3875
323.15 K, x1 = 0.4003 | 1215.41 | 1.392
323.15 K, x1 = 0.5009 | 1228.52 | 1.3965
323.15 K, x1 = 0.5999 | 1238.61 | 1.399
323.15 K, x1 = 0.7002 | 1246.64 | 1.401
323.15 K, x1 = 0.8004 | 1252.61 | 1.4025
323.15 K, x1 = 0.9011 | 1256.9 | 1.4045
333.15 K, x1 = 0.1001 | 1110.02 | 1.362
333.15 K, x1 = 0.2002 | 1161.89 | 1.376
333.15 K, x1 = 0.3004 | 1190.09 | 1.385
333.15 K, x1 = 0.4003 | 1208.03 | 1.391
333.15 K, x1 = 0.5009 | 1221.09 | 1.395
333.15 K, x1 = 0.5999 | 1231.14 | 1.398
333.15 K, x1 = 0.7002 | 1239.11 | 1.399
333.15 K, x1 = 0.8004 | 1245.05 | 1.401
333.15 K, x1 = 0.9011 | 1249.32 | 1.4025
343.15 K, x1 = 0.1001 | 1101.5 | 1.3615
343.15 K, x1 = 0.2002 | 1153.47 | 1.376
343.15 K, x1 = 0.3004 | 1181.98 | 1.385
343.15 K, x1 = 0.4003 | 1200.26 | 1.39
343.15 K, x1 = 0.5009 | 1213.58 | 1.3935
343.15 K, x1 = 0.5999 | 1223.61 | 1.397
343.15 K, x1 = 0.7002 | 1231.58 | 1.3985
343.15 K, x1 = 0.8004 | 1237.51 | 1.3995
343.15 K, x1 = 0.9011 | 1241.76 | 1.401
